Assays:
Type in all cases: in vivo
[1] = tested on: mouse breast cancer cell line 4T1-Luc2 AcGFP; assay: Antitumor effect in mouse breast cancer cell line (4T1-Luc2 AcGFP) graft model; conditions: BALB/c mice, anti-PD-1 antibody 0.2 mg/mouse intraperitoneal day 0, 4, 7, 11
Protocol: Example 1 Antitumor effect by combination of compound A and anti-PD-1 antibody in mouse breast cancer cell line (4T1-Luc2 AcGFP) graft model
The antitumor effect of administering compound A and anti-PD-1 antibody was evaluated in BALB/c mice (BALB/cAriNCriCrij, female, Japan Charles River) with 6 mice per group.
The mouse breast cancer cell line 4T1 (ATCC) was seeded in a 6-well microplate (Falcon), at a cell count of 1.5×10^5 per well. The culture medium used was RPMI-1640 medium containing 10% FBS, penicillin, streptomycin and 2-mercaptoethanol (FujiFilm-Wako). The seeded cells were cultured overnight using an incubator under conditions of 5% CO2, 37° C. The culture medium was replaced on the following day.
Vector pPBcmvIP-mcs was constructed from PB-CMV-MCS-EF1α-Puro vector (SBI; Catalog No.: PB510B-1), removing EF1-Puro and substituting 1RES-Puro. A Luc2/AcGFP fusion gene was then inserted between the pPBcinvIP-mcs CMV promoter and IRES to express Luciferase (Luc) and Green Fluorescent Protein (GFP), to obtain vector pPBcinvIP Luc2-AcGFP. During the process of constructing each vector, insertion of the separated fragments was confirmed by an established method.
The vector pPBcrnvIP Luc2-AcGFP in 10 mM Tris-C1 (pH 8.0) and 1 mlbJ EDTA (pH 8.0) (“TE Buffer”) (1.67 μg), Super PiggyBac Transposase Expression Vector (System Biosciences, LLC) in TE Buffer (0.33 μg) and X-treamGene reagent (Roche) (8 μL) were mixed, and the mixture was adjusted to a total amount of 210 μL with Opti-MEM (Thermo Fischer Scientific). The obtained mixture was allowed to stand at room temperature for 15 minutes, and then added to the cultured 4T1 cells. The medium was exchanged and subculturing was carried out in a T75 flask, after which culturing was continued under conditions of 5% CO2, 37° C. After 4 days, culturing was carried out in 2 μg/mL puromycin-containing medium.
Cells were selected twice with a flow cytometer, using AcGFP positivity as the marker. A mycoplasma removal reagent was added to the cells and culturing was continued for 8 days.
Cells of the mouse breast cancer cell line 4T1-Luc2 AcGFP established by the method described above were suspended in HBSS (FujiFilm-Wako) to a concentration of 2×10^7/mL. The mixture was grafted into mammary gland fat of BALB/c (BALB/cAriNCriCrlj, female. Japan Charles River) in amounts of 0.05 mL each, and the antitumor effect was evaluated.
(§1) On the 4th day after grafting, the long and short diameters of the tumors were measured using an electronic digital caliper (Digimatic™ caliper by Mitsutoyo Corp.), The mice were divided into groups in such a manner that the average tumor volumes were the same in each group. The tumor volumes were calculated by the following formula.
(§2) Tumor volume (mm)=Long diameter (n)×short diameter (mm)×short diameter (mm)/2
Compound A was dissolved in water for injection (Otsuka Pharmaceutical Factory, Inc.) to a concentration of 2.5 mg/mL. The anti-mouse PD-1 antibody (BioXcell) was diluted with PBS(−) (FujiFilm-Wako) to a concentration of 1 mg/mL. […]
With the starting day of administration defined as day 0, the tumor volume of each mouse was measured on day 4, day 7, day 11 and day 14.
The tumor volume on day 14 was statistically analyzed by a One-way ANOVA statistical test, or if […] was found in the test, by the Tukey-Kramer method. […]

[2] = tested on: mouse renal cell carcinoma cell line RAG; assay: Antitumor effect in mouse renal cell carcinoma cell line (RAG) graft model
Protocol: Example 2 Antitumor effect by combination of compound A and anti-PD-1 antibody in mouse renal cell carcinoma cell line (RAG) graft model
The antitumor effect of administering compound A and anti-PD-1 antibody was evaluated in BALB/c mice (BALB/cAnNCriCrlj, female, Japan Charles River) with 10 mice per group.
The grafted cells were pre-conditioned in BALB/c mice. The mouse renal cell carcinoma cell line RAG (ATCC) was suspended in EIBSS to a concentration of 2×10^8/mL. An equal volume of Matrigel™ matrix (Japan Becton Dickinson) was added to and thoroughly mixed with the suspension. The mixture was subcutaneously grafted on the right side of BALB/c mice (BALB/cAnNCriCrlj, female, Japan Charles River), at 0.1 mL each. After grafting, the formed tumors were extracted and finely cut. A Tumor Dissociation Kit, Mouse (Miltenyi Biotec K.K.) was then used for stirring in a GentleMACS (Miltenyi Biotec K.K.) to obtain a monocellular suspension. After passing through a 70 μm cell strainer, the cells were collected by centrifugation and cultured in medium containing 10% bovine serum.
(§3) The mouse renal cell carcinoma cell line RAG established by this method was suspended in HBSS to a concentration of 2.5×1.0^7/mL. The mixture was subsequently grafted onto the right side of BALB/c (BALB/cAnNCriCrij, female, Japan Charles River) in amounts of 0.1 mL each, and the antitumor effect was evaluated.
as §1, with “7th” for “4th”, “(Digirnatic™” for “(Digimatic™”, “Corp.).” for “Corp.),”
as §2
(§4) Compound A was dissolved in water for injection (Otsuka Pharmaceutical Factory, Inc.) to a concentration of 2.5 mg/mL. The anti-mouse PD-1 antibody (BioXcell) was diluted with physiological saline (Otsuka Pharmaceutical Factory, Inc.) to a concentration of 1 mg/mL.
(§5) Mice in the compound A administration group were given compound A by oral administration at a dose of 25 mg/kg (10 mL/kg), once per day for 7 days, Mice in the anti-PD-1 antibody administration group were intraperitoneally administered a dose of 200 lig/mouse (200 μL/mouse) on day 0 and day 3, where the starting day of administration was defined as day 0. The mice in the compound A and anti-PD-1 antibody combination group were administered both drugs in the same manner described above.
With the starting day of administration defined as day 0, the tumor volume of each mouse was measured on day 3 and day 7, The mean tumor volumes in each group are shown in Table 2 and FIG. 2. […]

[3] = tested on: mouse hepatocellular carcinoma cell line BNL 1 ME A.7R.1; assay: Antitumor effect in mouse hepatocellular carcinoma cell line (BNL 1 ME A.7R.1) graft model
Protocol: Example 3 Antitumor effect by combination of compound A and anti-PD-1 antibody in mouse hepatocellular carcinoma cell line (BNI, 1 ME A.7R.1) graft model
The antitumor effect of administering compound A and anti-M-1 antibody was evaluated in BALB/c mice (BALB/cAnNCriCrli, female, Japan Charles River) with 10 mice per group.
The grafted cells were pre-conditioned in BALB/c mice, A suspension of the mouse hepatocellular carcinoma cell line line BNL 1 ME A.7R.1 (ATCC) was subcutaneously grafted onto the right side of BALB/c mice (BALB/cArtNCriCrlj, male, Japan Charles River), at 5×10^6 cells per mouse. After grafting, the formed tumors were extracted and finely cut. The mixture was then stirred with a GentleMACS (Miltenvi Biotec K.K.) to obtain a monocellular suspension. After passing through a cell strainer, the cells were collected by centrifugation and cultured.
as §3, with “hepatocellular” for “renal cell”, “BNL 1 ME A.7R.1” for “RAG”, “1×10^8/mL.” for “2.5×1.0^7/mL.”, “(BALB/cAnNCrICrlj,” for “(BALB/cAnNCriCrij,”
as §1, with “(Digimaticlm” for “(Digimatic™”, “Corp.).” for “Corp.),”
Tumor volume […]=Long diameter (mm)×short diameter (mm)×short diameter (mm)/2
as §4
as §5, with “1w” for “by”, “days.” for “days,”, “μg/mouse” for “lig/mouse”
With the starting day of administration defined as day 0, the tumor volume of each mouse was measured on day 3 and day 7.
The tumor volumes in the control group and in each group on day 7 were compared in Dunnett's multiple comparison test. The final significance level was as follows.

[4] = day 7, Dunnett's multiple comparison test

CNC(=O)n1ccc2cc(Oc3ccnc(NC(=O)c4ccc(C5CCN(CCO)CC5)cc4)c3)c(OCCOC)cc21 [Compound A, 5-((2-(4-(1-(2-hydroxyethyl)piperidin-4-yl)benzamide)pyridin-4-yl)oxy)-6-(2-methoxyethoxy)-N-methyl-1H-indole-1-carboxamide]
mean tumor volume, Day 0 ([1]; Day 0 (starting day of administration), 6 per group, compound A 25 mg/kg oral once per day for 14 days): 77.3 mm^3 | mean tumor volume, Day 4 ([1]; Day 4, compound A 25 mg/kg oral once per day): 139.0 mm^3 | mean tumor volume, Day 7 ([1]; Day 7, compound A 25 mg/kg oral once per day): 131.2 mm^3 | mean tumor volume, Day 11 ([1]; Day 11, compound A 25 mg/kg oral once per day): 226.0 mm^3 | mean tumor volume, Day 14 ([1]; Day 14, compound A 25 mg/kg oral once per day): 314.6 mm^3 | mean tumor volume, Day 0 ([2]; Day 0 (starting day of administration), BALB/c mice, 10 per group, compound A 25 mg/kg oral once per day for 7 days, anti-PD-1 antibody 200 ug/mouse intraperitoneal day 0 and 3): 58.8 mm^3 | mean tumor volume, Day 3 ([2]; Day 3, BALB/c mice, compound A 25 mg/kg oral once per day, anti-PD-1 antibody 200 ug/mouse intraperitoneal day 0 and 3): 72.5 mm^3 | mean tumor volume, Day 7 ([2]; Day 7, BALB/c mice, compound A 25 mg/kg oral once per day, anti-PD-1 antibody 200 ug/mouse intraperitoneal day 0 and 3): 107.5 mm^3 | difference in tumor volume between the control group and the treatment group [2, 4]: No statistically significant difference | mean tumor volume, Day 0 ([3]; Day 0 (starting day of administration), BALB/c mice, 10 per group, compound A 25 mg/kg oral once per day for 7 days, anti-PD-1 antibody 200 μg/mouse intraperitoneal day 0 and 3): 109.0 mm^3 | mean tumor volume, Day 3 ([3]; Day 3, BALB/c mice, compound A 25 mg/kg oral once per day, anti-PD-1 antibody 200 μg/mouse intraperitoneal day 0 and 3): 223.6 mm^3 | mean tumor volume, Day 7 ([3]; Day 7, BALB/c mice, compound A 25 mg/kg oral once per day, anti-PD-1 antibody 200 μg/mouse intraperitoneal day 0 and 3): 221.4 mm^3 | difference in tumor volume between the control group and the treatment group [3, 4]: No statistically significant difference

From patent publication US20230330081A1, “PHARMACEUTICAL COMPOSITION FOR TREATING TUMORS” (EISAI R&D MANAGEMENT CO., LTD., priority 2020, published 2023)
